Laboratory results taken from PubChem BioAssay (NCI).
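Protocol summary: plate cells (96-well), add compound at 5 concentrations, incubate 48 h, interpolate endpoints linearly. GI50 is the concentration that inhibits growth by half. Definition used: TGI = concentration required for complete inhibition of growth.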

Experiments:
Assay in all cases: NCI anticancer screen, dose series, 48 h
UACC-257 melanoma = system: UACC-257 melanoma
U251 CNS = system: U251 CNS
A549 NSCLC = system: A549 NSCLC
TK-10 renal = system: TK-10 renal
SNB-19 CNS = system: SNB-19 CNS
SK-MEL-5 melanoma = system: SK-MEL-5 melanoma
SR leukemia = system: SR leukemia
SK-MEL-2 melanoma = system: SK-MEL-2 melanoma
SF-268 CNS = system: SF-268 CNS
NCI-H226 lung = system: NCI-H226 lung
CAKI-1 renal = system: CAKI-1 renal
HL-60(TB) leukemia = system: HL-60(TB) leukemia
ACHN renal = system: ACHN renal
PC-3 prostate = system: PC-3 prostate
MOLT-4 leukemia = system: MOLT-4 leukemia
786-0 renal = system: 786-0 renal
T-47D breast = system: T-47D breast
NCI-H23 lung = system: NCI-H23 lung
NCI-H522 lung = system: NCI-H522 lung
HT29 colon = system: HT29 colon
K-562 leukemia = system: K-562 leukemia
SK-OV-3 ovarian = system: SK-OV-3 ovarian
OVCAR-8 ovarian = system: OVCAR-8 ovarian
HOP-92 NSCLC = system: HOP-92 NSCLC
UACC-62 melanoma = system: UACC-62 melanoma
MDA-MB-435 = system: MDA-MB-435
SN12C renal = system: SN12C renal
HCT-15 colon = system: HCT-15 colon
DU-145 prostate = system: DU-145 prostate
RPMI-8226 leukemia = system: RPMI-8226 leukemia
EKVX NSCLC = system: EKVX NSCLC
OVCAR-4 ovarian = system: OVCAR-4 ovarian
IGROV1 ovarian = system: IGROV1 ovarian
A498 renal = system: A498 renal
HCT-116 colon = system: HCT-116 colon
MALME-3M melanoma = system: MALME-3M melanoma
BT-549 breast = system: BT-549 breast
HOP-62 NSCLC = system: HOP-62 NSCLC
MDA-MB-231 breast = system: MDA-MB-231 breast
KM12 colon = system: KM12 colon
M14 melanoma = system: M14 melanoma
SK-MEL-28 melanoma = system: SK-MEL-28 melanoma
RXF 393 renal = system: RXF 393 renal
UO-31 renal = system: UO-31 renal
SW-620 colon = system: SW-620 colon
LOX IMVI melanoma = system: LOX IMVI melanoma
OVCAR-5 ovarian = system: OVCAR-5 ovarian
COLO 205 colon = system: COLO 205 colon
NCI/ADR-RES ovarian = system: NCI/ADR-RES ovarian
HS 578T breast = system: HS 578T breast
SF-295 CNS = system: SF-295 CNS
MCF7 breast = system: MCF7 breast
OVCAR-3 ovarian = system: OVCAR-3 ovarian
NCI-H460 lung = system: NCI-H460 lung
SF-539 CNS = system: SF-539 CNS
SNB-75 CNS = system: SNB-75 CNS
CCRF-CEM leukemia = system: CCRF-CEM leukemia
HCC-2998 colon = system: HCC-2998 colon

CC(C)CC1c2[nH]c3ccccc3c2C[C@H]2C(=O)NC(Cc3c[nH]c4ccccc34)C(=O)N12 (some centres undefined)
TGI (UACC-257 melanoma): 28.9 µM | TGI (U251 CNS): 28.4 µM | TGI (A549 NSCLC): 71 µM | TGI (TK-10 renal): 24.5 µM | TGI (SNB-19 CNS): 43.6 µM | TGI (SK-MEL-5 melanoma): 26 µM | TGI (SR leukemia): 45.5 µM | TGI (SK-MEL-2 melanoma): 32.9 µM | TGI (SF-268 CNS): 56.3 µM | TGI (NCI-H226 lung): 50 µM | TGI (CAKI-1 renal): 66.1 µM | TGI (HL-60(TB) leukemia): 40.9 µM | TGI (ACHN renal): 60 µM | TGI (PC-3 prostate): 41.9 µM | TGI (MOLT-4 leukemia): 39.1 µM | TGI (786-0 renal): 40.2 µM | TGI (T-47D breast): 42.5 µM | TGI (NCI-H23 lung): 40 µM | TGI (NCI-H522 lung): 29.5 µM | TGI (HT29 colon): 31.2 µM | TGI (K-562 leukemia): 61.5 µM | TGI (SK-OV-3 ovarian): 49 µM | TGI (OVCAR-8 ovarian): 39 µM | TGI (HOP-92 NSCLC): 34.5 µM | TGI (UACC-62 melanoma): 36 µM | TGI (MDA-MB-435): 34.4 µM | TGI (SN12C renal): 31.1 µM | TGI (HCT-15 colon): 47.2 µM | TGI (DU-145 prostate): > 100 µM | TGI (RPMI-8226 leukemia): 48.7 µM | TGI (EKVX NSCLC): 45.4 µM | TGI (OVCAR-4 ovarian): 63.8 µM | TGI (IGROV1 ovarian): 36 µM | TGI (A498 renal): 33.4 µM | TGI (HCT-116 colon): 25.7 µM | TGI (MALME-3M melanoma): 28 µM | TGI (BT-549 breast): 36.2 µM | TGI (HOP-62 NSCLC): 45.9 µM | TGI (MDA-MB-231 breast): 49.9 µM | TGI (KM12 colon): 28.8 µM | TGI (M14 melanoma): 29 µM | TGI (SK-MEL-28 melanoma): 40.5 µM | TGI (RXF 393 renal): 22.5 µM | TGI (UO-31 renal): 42.9 µM | TGI (SW-620 colon): 58.5 µM | TGI (LOX IMVI melanoma): 31.1 µM | TGI (OVCAR-5 ovarian): 48 µM | TGI (COLO 205 colon): 34.8 µM | TGI (NCI/ADR-RES ovarian): 56.4 µM | TGI (HS 578T breast): 26.2 µM | TGI (SF-295 CNS): 43.8 µM | TGI (MCF7 breast): > 100 µM | TGI (OVCAR-3 ovarian): 30.5 µM

CN(C)Cc1ccc(NC(=O)c2cncc(C#Cc3cnc(N)c4ncccc34)c2)cc1C(F)(F)F
GI50 (UACC-257 melanoma): 0.673 µM | TGI (UACC-257 melanoma): 2.53 µM | GI50 (U251 CNS): 1.63 µM | TGI (U251 CNS): 3.13 µM | GI50 (A549 NSCLC): 1.67 µM | TGI (A549 NSCLC): 3.41 µM | GI50 (TK-10 renal): 1.81 µM | TGI (TK-10 renal): 3.31 µM | GI50 (SNB-19 CNS): 1.89 µM | TGI (SNB-19 CNS): 3.5 µM | GI50 (SK-MEL-5 melanoma): 1.17 µM | TGI (SK-MEL-5 melanoma): 2.41 µM | GI50 (SR leukemia): 1.43 µM | TGI (SR leukemia): 3.44 µM | GI50 (SK-MEL-2 melanoma): 1.56 µM | TGI (SK-MEL-2 melanoma): 27 µM | GI50 (SF-268 CNS): 1.66 µM | TGI (SF-268 CNS): 3.2 µM | GI50 (CAKI-1 renal): 3.48 µM | TGI (CAKI-1 renal): 11.5 µM | GI50 (HL-60(TB) leukemia): 0.937 µM | TGI (HL-60(TB) leukemia): 2.51 µM | GI50 (ACHN renal): 1.52 µM | TGI (ACHN renal): 2.89 µM | GI50 (PC-3 prostate): 1.64 µM | TGI (PC-3 prostate): 3.04 µM | GI50 (MOLT-4 leukemia): 0.701 µM | TGI (MOLT-4 leukemia): 2.75 µM | GI50 (786-0 renal): 1.77 µM | TGI (786-0 renal): 3.26 µM | GI50 (T-47D breast): 15.8 µM | TGI (T-47D breast): 65.3 µM | GI50 (NCI-H23 lung): 1.25 µM | TGI (NCI-H23 lung): 2.68 µM | GI50 (NCI-H522 lung): 1.93 µM | TGI (NCI-H522 lung): 4.07 µM | GI50 (HT29 colon): 0.133 µM | TGI (HT29 colon): 1.86 µM | GI50 (NCI-H460 lung): 1.67 µM | TGI (NCI-H460 lung): 3.12 µM | TGI (K-562 leukemia): 1.02 µM | GI50 (OVCAR-8 ovarian): 1.82 µM | TGI (OVCAR-8 ovarian): 3.85 µM | GI50 (HOP-92 NSCLC): 1.04 µM | TGI (HOP-92 NSCLC): 4.66 µM | GI50 (UACC-62 melanoma): 1.19 µM | TGI (UACC-62 melanoma): 2.53 µM | GI50 (MDA-MB-435): 0.376 µM | TGI (MDA-MB-435): 1.88 µM | GI50 (SN12C renal): 1.54 µM | TGI (SN12C renal): 3.02 µM | GI50 (HCT-15 colon): 1.5 µM | TGI (HCT-15 colon): 3.1 µM | GI50 (DU-145 prostate): 1.73 µM | TGI (DU-145 prostate): 3.16 µM | GI50 (RPMI-8226 leukemia): 1.24 µM | TGI (RPMI-8226 leukemia): 3.58 µM | GI50 (EKVX NSCLC): 1.71 µM | TGI (EKVX NSCLC): 3.36 µM | GI50 (SF-539 CNS): 1.36 µM | TGI (SF-539 CNS): 2.66 µM | GI50 (SNB-75 CNS): 1.69 µM | TGI (SNB-75 CNS): 3.09 µM | GI50 (OVCAR-4 ovarian): 1.16 µM | TGI (OVCAR-4 ovarian): 2.56 µM | GI50 (IGROV1 ovarian): 1.47 µM | TGI (IGROV1 ovarian): 2.97 µM | GI50 (CCRF-CEM leukemia): 1.34 µM | TGI (CCRF-CEM leukemia): 3.57 µM | GI50 (A498 renal): 1.5 µM | TGI (A498 renal): 4.63 µM | GI50 (HCT-116 colon): 1.08 µM | TGI (HCT-116 colon): 2.33 µM | GI50 (MALME-3M melanoma): 0.104 µM | TGI (MALME-3M melanoma): 0.956 µM | GI50 (BT-549 breast): 2.21 µM | TGI (BT-549 breast): 4.36 µM | GI50 (HCC-2998 colon): 1.62 µM | TGI (HCC-2998 colon): 3.16 µM | GI50 (HOP-62 NSCLC): 1.57 µM | TGI (HOP-62 NSCLC): 3.48 µM | GI50 (MDA-MB-231 breast): 1.07 µM | TGI (MDA-MB-231 breast): 2.36 µM | GI50 (KM12 colon): 0.0759 µM | TGI (KM12 colon): 1.4 µM | GI50 (M14 melanoma): 0.0802 µM | TGI (M14 melanoma): 1.33 µM | GI50 (SK-MEL-28 melanoma): 0.161 µM | TGI (SK-MEL-28 melanoma): 1.43 µM | GI50 (RXF 393 renal): 1.31 µM | TGI (RXF 393 renal): 2.88 µM | GI50 (UO-31 renal): 1.43 µM | TGI (UO-31 renal): 2.8 µM | GI50 (SW-620 colon): 1.5 µM | TGI (SW-620 colon): 2.98 µM | GI50 (LOX IMVI melanoma): 0.994 µM | TGI (LOX IMVI melanoma): 2.24 µM | GI50 (OVCAR-5 ovarian): 1.27 µM | TGI (OVCAR-5 ovarian): 2.6 µM | GI50 (COLO 205 colon): 0.293 µM | TGI (COLO 205 colon): 14 µM | GI50 (NCI/ADR-RES ovarian): 1.8 µM | TGI (NCI/ADR-RES ovarian): 3.67 µM | GI50 (HS 578T breast): 1.4 µM | TGI (HS 578T breast): 3.12 µM | GI50 (SF-295 CNS): 1.59 µM | TGI (SF-295 CNS): 2.98 µM | GI50 (MCF7 breast): 1.63 µM | TGI (MCF7 breast): 3.33 µM | GI50 (OVCAR-3 ovarian): 1.98 µM | TGI (OVCAR-3 ovarian): 3.8 µM
